ChEMBL document CHEMBL1828497, “Novel indole and azaindole (pyrrolopyridine) cannabinoid (CB) receptor agonists: design, synthesis, structure-activity relationships, physicochemical properties and biological activity” (Eur J Med Chem, 2011)
Values after ≈ are worked out from the molar mass of the structure shown.

Species: Homo sapiens
Experiment: Selectivity ratio of Ki for human CB2 receptor to Ki for human CB1 receptor
Settings: not given

SMILES	Ratio Ki
CCCCCn1cc(C(=O)c2cccc3ccccc23)c2cccnc21	4
CCCCCn1cc(C(=O)c2ccc(-c3ccccc3)cc2)c2ccccc21	1
COCCn1cc(C(=O)c2cccc3ccccc23)c2ccncc21	< 0.03
CCCCCCC(C)(C)c1cc(O)c2c(c1)OC(C)(C)C1CCC(=O)CC21 (configuration not stated) [NABILONE]	1.7
COCCn1cc(C(=O)Nc2ccc3ccccc3c2)c2ccccc21	< 0.3
CCCCCn1cc(C(=O)Nc2cccc3ccccc23)c2ccccc21	79

Tested on: not listed separately
Experiment: Lipophilicity, log D of the compound at pH 7.4
Settings: buffer

SMILES	logD
CCCCCCC(C)(C)c1ccc([C@@H]2C[C@H](O)CC[C@H]2CCCO)c(O)c1 [CP-55940]	> 5
COCCn1cc(C(=O)c2ccc(-c3ccccc3)cc2)c2ccccc21	4.5
CCCCCn1cc(C(=O)c2cccc3ccccc23)c2cccnc21	> 5
CCCCCn1cc(C(=O)c2ccc(-c3ccccc3)cc2)c2ccccc21	> 5
COCCn1cc(C(=O)c2cccc3ccccc23)c2ccncc21	3.13
CCCCCCC(C)(C)c1cc(O)c2c(c1)OC(C)(C)C1CCC(=O)CC21 (configuration not stated) [NABILONE]	> 5
Cc1c(C(=O)c2cccc3ccccc23)c2cccc3c2n1[C@H](CN1CCOCC1)CO3 [WIN-552122]	4.08
COCCn1cc(C(=O)Nc2ccc3ccccc3c2)c2ccccc21	3.69
CCCCCn1cc(C(=O)Nc2cccc3ccccc23)c2ccccc21	> 5

Tested on: not listed separately
Experiment: physchem
Settings: 0.01 M phosphate buffered saline, pH 7.4

SMILES	solubility kinetic [µM]
CCCCCCC(C)(C)c1ccc([C@@H]2C[C@H](O)CC[C@H]2CCCO)c(O)c1 [CP-55940]	30 (≈ 11.3 µg/mL)
Cc1c(C(=O)c2cccc3ccccc23)c2cccc3c2n1[C@H](CN1CCOCC1)CO3 [WIN-552122]	3 (≈ 1.28 µg/mL)

Tested on: not listed separately
Experiment: physchem
Settings: phosphate buffer, pH 4
Description: Thermodynamic solubility of the compound in phosphate buffer at pH 4 after 24 hrs by HPLC analysis

SMILES	solubility thermodynamic at 24 h [µM]
CCCCCCC(C)(C)c1ccc([C@@H]2C[C@H](O)CC[C@H]2CCCO)c(O)c1 [CP-55940]	2 (≈ 0.753 µg/mL)
COCCn1cc(C(=O)c2ccc(-c3ccccc3)cc2)c2ccccc21	< 1
CCCCCn1cc(C(=O)c2cccc3ccccc23)c2cccnc21	1 (≈ 0.342 µg/mL)
CCCCCn1cc(C(=O)c2ccc(-c3ccccc3)cc2)c2ccccc21	< 1
CCCCCCC(C)(C)c1cc(O)c2c(c1)OC(C)(C)C1CCC(=O)CC21 (configuration not stated) [NABILONE]	< 1
Cc1c(C(=O)c2cccc3ccccc23)c2cccc3c2n1[C@H](CN1CCOCC1)CO3 [WIN-552122]	8 (≈ 3.41 µg/mL)
COCCn1cc(C(=O)Nc2ccc3ccccc3c2)c2ccccc21	< 1
CCCCCn1cc(C(=O)Nc2cccc3ccccc23)c2ccccc21	< 1

Tested on: not listed separately
Experiment: physchem
Settings: 0.01 M phosphate buffered saline, pH 7.4
Remark: another data set of the same source

SMILES	solubility kinetic [µM]
CCCCCCC(C)(C)c1ccc([C@@H]2C[C@H](O)CC[C@H]2CCCO)c(O)c1 [CP-55940]	100 (≈ 37.7 µg/mL)
Cc1c(C(=O)c2cccc3ccccc23)c2cccc3c2n1[C@H](CN1CCOCC1)CO3 [WIN-552122]	20 (≈ 8.53 µg/mL)

Tested on: not listed separately
Experiment: Dissociation constant, pKa of the compound by fast UV-metric method
Type: physicochemical
Settings: not given

SMILES	pKa
CCCCCCC(C)(C)c1ccc([C@@H]2C[C@H](O)CC[C@H]2CCCO)c(O)c1 [CP-55940]	11.2
CCCCCn1cc(C(=O)c2cccc3ccccc23)c2cnccc21	6.49
CCCCCn1cc(C(=O)c2cccc3ccccc23)c2cccnc21	< 2
COCCn1cc(C(=O)c2cccc3ccccc23)c2ccncc21	5.8
CCCCCCC(C)(C)c1cc(O)c2c(c1)OC(C)(C)C1CCC(=O)CC21 (configuration not stated) [NABILONE]	10.6
Cc1c(C(=O)c2cccc3ccccc23)c2cccc3c2n1[C@H](CN1CCOCC1)CO3 [WIN-552122]	4.14

Target: T1, Cannabinoid receptor 1 (Homo sapiens, UniProt P21554)
Experiment: Displacement of [3H]-CP55940 from human CB1 receptor expressed in CHO cells by liquid scintillation counting
Type: cell-based
Settings: not given

T1 sequence (P21554 whole entry): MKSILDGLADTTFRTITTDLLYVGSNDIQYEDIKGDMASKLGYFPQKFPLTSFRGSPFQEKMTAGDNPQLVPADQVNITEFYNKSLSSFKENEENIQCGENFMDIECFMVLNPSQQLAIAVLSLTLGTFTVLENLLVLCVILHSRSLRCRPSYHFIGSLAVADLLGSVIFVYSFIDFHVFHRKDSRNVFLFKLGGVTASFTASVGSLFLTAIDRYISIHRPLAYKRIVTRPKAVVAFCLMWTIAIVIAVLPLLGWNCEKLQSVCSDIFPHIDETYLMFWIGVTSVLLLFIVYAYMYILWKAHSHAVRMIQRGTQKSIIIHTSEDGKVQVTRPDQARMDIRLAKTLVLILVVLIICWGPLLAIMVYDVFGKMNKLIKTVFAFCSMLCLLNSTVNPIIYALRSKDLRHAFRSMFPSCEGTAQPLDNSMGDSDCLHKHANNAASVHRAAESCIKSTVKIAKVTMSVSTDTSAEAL

SMILES	Ki [nM]
CCCCCn1cc(C(=O)c2cccc3ccccc23)c2cnccc21	316
COCCn1cc(C(=O)c2ccc(-c3ccccc3)cc2)c2ccccc21	> 1000
CCCCCn1cc(C(=O)c2cccc3ccccc23)c2cccnc21	12.6
CCCCCn1cc(C(=O)c2ccc(-c3ccccc3)cc2)c2ccccc21	31.6
COCCn1cc(C(=O)c2cccc3ccccc23)c2ccncc21	> 1000
CCCCCCC(C)(C)c1cc(O)c2c(c1)OC(C)(C)C1CCC(=O)CC21 (configuration not stated) [NABILONE]	3.98
COCCn1cc(C(=O)Nc2ccc3ccccc3c2)c2ccccc21	> 1000
CCCCCn1cc(C(=O)Nc2cccc3ccccc23)c2ccccc21	1.26

Target: T1, Cannabinoid receptor 1
Experiment: Agonist activity at human CB1 receptor expressed in CHO cells assessed as stimulation of [3H]-arachidonic acid release
Type: functional, cell-based
Settings: not given

SMILES	EC50 [nM]
CCCCCn1cc(C(=O)c2cccc3ccccc23)c2cnccc21	50.1
CCCCCn1cc(C(=O)c2cccc3ccccc23)c2cccnc21	31.6
COCCn1cc(C(=O)c2cccc3ccccc23)c2ccncc21	> 1000
CCCCCn1cc(C(=O)Nc2cccc3ccccc23)c2ccccc21	10

Tested on: not listed separately
Experiment: physchem
Settings: phosphate buffer, pH 7.4
Description: Thermodynamic solubility of the compound in phosphate buffer at pH 7.4 after 24 hrs by HPLC analysis

SMILES	solubility thermodynamic at 24 h [µM]
CCCCCCC(C)(C)c1ccc([C@@H]2C[C@H](O)CC[C@H]2CCCO)c(O)c1 [CP-55940]	2 (≈ 0.753 µg/mL)
COCCn1cc(C(=O)c2ccc(-c3ccccc3)cc2)c2ccccc21	< 1
CCCCCn1cc(C(=O)c2cccc3ccccc23)c2cccnc21	1 (≈ 0.342 µg/mL)
CCCCCn1cc(C(=O)c2ccc(-c3ccccc3)cc2)c2ccccc21	< 1
CCCCCCC(C)(C)c1cc(O)c2c(c1)OC(C)(C)C1CCC(=O)CC21 (configuration not stated) [NABILONE]	< 1
Cc1c(C(=O)c2cccc3ccccc23)c2cccc3c2n1[C@H](CN1CCOCC1)CO3 [WIN-552122]	5 (≈ 2.13 µg/mL)
COCCn1cc(C(=O)Nc2ccc3ccccc3c2)c2ccccc21	< 1
CCCCCn1cc(C(=O)Nc2cccc3ccccc23)c2ccccc21	< 1

Target: Cannabinoid receptor 1 (Rattus norvegicus) (UniProt P20272)
Experiment: Activation of CB1 receptor in Wistar rat prelimbic prefrontal cortex assessed as reduction of field excitatory postsynaptic potential amplitude after 20 mins relative to baseline
Type: tissue-based
Settings: not given

Cannabinoid receptor 1 (Rattus norvegicus), sequence (P20272 whole entry): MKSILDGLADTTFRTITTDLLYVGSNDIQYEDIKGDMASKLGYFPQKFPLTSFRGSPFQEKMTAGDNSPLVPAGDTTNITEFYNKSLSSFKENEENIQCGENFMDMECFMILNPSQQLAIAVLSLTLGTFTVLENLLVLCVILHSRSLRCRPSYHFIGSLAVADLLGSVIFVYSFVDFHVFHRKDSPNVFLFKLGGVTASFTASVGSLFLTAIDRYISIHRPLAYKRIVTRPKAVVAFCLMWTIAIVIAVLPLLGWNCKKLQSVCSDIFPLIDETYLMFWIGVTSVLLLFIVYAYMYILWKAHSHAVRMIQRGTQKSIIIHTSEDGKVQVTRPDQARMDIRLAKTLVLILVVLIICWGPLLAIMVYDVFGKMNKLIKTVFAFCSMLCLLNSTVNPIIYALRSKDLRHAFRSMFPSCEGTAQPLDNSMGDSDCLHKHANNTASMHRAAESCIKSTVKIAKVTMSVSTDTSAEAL

SMILES	Emax [%]
CCCCCn1cc(C(=O)c2cccc3ccccc23)c2cccnc21	67.1
CCCCCn1cc(C(=O)Nc2cccc3ccccc23)c2ccccc21	78.1

Target: Cannabinoid receptor 1 (Rattus norvegicus, UniProt P20272)
Experiment: (§1) Activation of CB1 receptor in Wistar rat prelimbic prefrontal cortex assessed as reduction of field excitatory postsynaptic potential amplitude after 20 mins
Type: tissue-based
Settings: not given

Cannabinoid receptor 1 (Rattus norvegicus, UniProt P20272), sequence (P20272 whole entry): as above

SMILES	IC50 [nM]
CCCCCn1cc(C(=O)c2cccc3ccccc23)c2cccnc21	520
CCCCCn1cc(C(=O)Nc2cccc3ccccc23)c2ccccc21	450

Target: Cannabinoid receptor 1 (Rattus norvegicus) (UniProt P20272)
Experiment: as §1
Type: tissue-based
Settings: not given

SMILES	inhibition
CCCCCn1cc(C(=O)c2cccc3ccccc23)c2cccnc21	Dose-dependent effect
CCCCCn1cc(C(=O)Nc2cccc3ccccc23)c2ccccc21	Dose-dependent effect

Tested on: not listed separately
Experiment: Apparent permeability from apical to basolateral side in human Caco2 cells by LC-MS/MS analysis
Settings: Caco-2

SMILES	Papp A→B [×10⁻⁶ cm/s]
CCCCCCC(C)(C)c1ccc([C@@H]2C[C@H](O)CC[C@H]2CCCO)c(O)c1 [CP-55940]	5.7
Cc1c(C(=O)c2cccc3ccccc23)c2cccc3c2n1[C@H](CN1CCOCC1)CO3 [WIN-552122]	12.1

Target: T2, Cannabinoid receptor 2 (Homo sapiens, UniProt P34972)
Experiment: Agonist activity at human CB2 receptor expressed in CHO cells assessed as inhibition of forskolin-stimulated cAMP accumulation after 20 mins
Type: functional, cell-based
Settings: not given

T2 sequence (P34972 whole entry): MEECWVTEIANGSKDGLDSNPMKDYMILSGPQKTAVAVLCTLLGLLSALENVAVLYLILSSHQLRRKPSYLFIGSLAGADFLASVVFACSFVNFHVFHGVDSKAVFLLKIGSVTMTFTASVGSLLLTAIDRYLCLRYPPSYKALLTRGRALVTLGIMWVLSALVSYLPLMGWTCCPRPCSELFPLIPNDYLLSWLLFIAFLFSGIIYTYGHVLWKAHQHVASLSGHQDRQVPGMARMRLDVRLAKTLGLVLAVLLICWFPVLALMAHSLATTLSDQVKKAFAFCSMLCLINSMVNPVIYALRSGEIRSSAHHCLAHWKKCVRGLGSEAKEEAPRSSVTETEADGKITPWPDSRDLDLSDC

SMILES	EC50 [nM]
CCCCCn1cc(C(=O)c2cccc3ccccc23)c2cccnc21	158
CCCCCCC(C)(C)c1cc(O)c2c(c1)OC(C)(C)C1CCC(=O)CC21 (configuration not stated) [NABILONE]	15.8
CCCCCn1cc(C(=O)Nc2cccc3ccccc23)c2ccccc21	7.94

Target: T2, Cannabinoid receptor 2
Experiment: Displacement of [3H]-CP55940 from human CB2 receptor expressed in CHO cells by liquid scintillation counting
Type: cell-based
Settings: not given

SMILES	Ki [nM]
CCCCCn1cc(C(=O)c2cccc3ccccc23)c2cnccc21	50.1
COCCn1cc(C(=O)c2ccc(-c3ccccc3)cc2)c2ccccc21	> 1000
CCCCCn1cc(C(=O)c2cccc3ccccc23)c2cccnc21	50.1
CCCCCn1cc(C(=O)c2ccc(-c3ccccc3)cc2)c2ccccc21	39.8
COCCn1cc(C(=O)c2cccc3ccccc23)c2ccncc21	25.1
CCCCCCC(C)(C)c1cc(O)c2c(c1)OC(C)(C)C1CCC(=O)CC21 (configuration not stated) [NABILONE]	6.31
COCCn1cc(C(=O)Nc2ccc3ccccc3c2)c2ccccc21	316
CCCCCn1cc(C(=O)Nc2cccc3ccccc23)c2ccccc21	100
